Measured values published in US20170008888A1 (KYORIN PHARMACEUTICAL CO., LTD., priority 2014, published 2017).

Legend:
[1] = target: T1, ERK5 (Homo sapiens, UniProt Q13164); test: Probe-based (AX9989 acyl phosphate ATP probe) kinase profiling in Jurkat lysate: ERK5; assay type: binding; details: for IC50: calculated from percent inhibition of AX9989 labeling and the screening concentration, Jurkat lysate; for inhibition at 1 µM: screening concentration 1.0 μM, read-out: Kinase inhibition % at indicated screening concentration: ERK5
T1 construct: screened for activity against several kinases in Jurkat cells; endogenous in cells; host or cells: Jurkat cell lysate
Procedure: (§1) In this example, potency of the compounds as ERK5 inhibitors was assessed, and the compounds were screened for activity against several kinases in Jurkat cells.
(§2) Jurkat cell pellets were resuspended in four volumes of lysis buffer (50 mM HEPES pH 7.5, 150 mM NaCl, 0.1% Triton-X-100, 1% v/v phosphatase, inhibitor cocktail II [EMD/Calbiochem, #524625]), sonicated using a tip, sonicator, and Dounce homogenized. Lysate was cleared by centrifugation, at 16,000 g for 15 min., was gel filtered (BioRad 10DG) and MnCl2 was then added to a final concentration of 20 mM before treatment with the test compound and probe labeling. […] All compound treatments were performed at room temperature.
(§3) Acyl phosphate ATP probe (AX9989) labeling reactions were performed at room temperature with a final probe concentration of 5 μM after a 15 min pre-incubation of lysate with a test compound. All reactions were performed in duplicate, using 445 μl/sample at 5 mg/ml. Probe-labeled lysates were denatured and reduced (6 M urea, 10 mM DTT, 65° C., 15 min), alkylated (40 mM iodoacetamide, 37° C., 30 min, and gel filtered (Sephadex G25) into 10 mM ammonium bicarbonate, 2 M urea, 5 mM methionine. The desalted protein mixture was digested with trypsin (0.015 mg/ml) for 1 hr at 37° C., and desthiobiotinylated peptides were captured using a […] high-capacity streptavidin resin (Thermo Scientific). Captured peptides were then washed extensively using 150 μl/wash with three different wash buffers: (A) 3 times with 1% triton, 0.5% tergitol, 1 mM EDTA in PBS; (B) 18 times with PBS; and (C) 8 times with HPLC grade water. Peptides were eluted from the streptavidin beads using two 35-μL washes of a 50% CH3CN/water mixture containing 0.1% TFA at room temperature.
(§4) Kinase active site peptides were identified and quantified using LC/MS. Percent inhibition was calculated as the normalized decrease in the ESI-MS fragment intensities of probe-labeled peptides in samples incubated with the test compound compared to those without.
ERK5 IC50 values were calculated from the percent inhibition and the screening concentration.

[2] = tested on: human PBMCs; test: Human PBMC TNF-α response to endotoxin (ELISA); assay type: cell-based; details: 0.1 μg/ml LPS 16 h, read-out: EC50 for the inhibition of the human PBMC TNF-α response to endotoxin, ave. ± S.D.
Procedure: Human PBMCs (Astarte Biologics, Redmond, Wash.) were seeded at 2e6 cells/ml in RPMI 1640 containing 10% (v/v) charcoal-dextran treated, heat inactivated FBS (Omega Scientific, Tarzana, Calif.), 0.05 mM 2-Mercaptoethanol (Sigma-Aldrich, St. Louis, Mo.), and 1×Pen/Strep Amphotericin B (Lonza, Allendale, N.J.). Cells were pre-treated with test compounds (10 μM down by ⅕ in a 4-point serial dilution series) for 1 h at 37° C. in a humidified atmosphere at 5% CO2. Cells were then stimulated with 0.1 μg/ml lipopolysaccharide (LPS) from E. coli 0111:B4 (EMD Millipore, Billerica, Mass.) for 16 h at 37° C. in a humidified atmosphere at 5% CO2. Supernatant was collected and a 25-fold dilution was analyzed for TNF-α concentration using an ELISA kit from Life Technologies (Grand Island, N.Y.) according to the manufacturer's instructions. Absorbance at 450 nm was read using the Synergy 2 multi-detection microplate reader (BioTek Instruments, Winooski, Vt.).

[3] = target: T2, AurA (Homo sapiens, UniProt O14965); test: Probe-based (AX9989) kinase profiling in Jurkat lysate: AurA; assay type: binding; details: screening concentration 1.0 μM; read-out: Kinase inhibition % at indicated screening concentration: AurA
T2 construct: screened for activity against several kinases in Jurkat cells; endogenous in cells; host or cells: Jurkat cell lysate
T2 sequence (O14965 1-403): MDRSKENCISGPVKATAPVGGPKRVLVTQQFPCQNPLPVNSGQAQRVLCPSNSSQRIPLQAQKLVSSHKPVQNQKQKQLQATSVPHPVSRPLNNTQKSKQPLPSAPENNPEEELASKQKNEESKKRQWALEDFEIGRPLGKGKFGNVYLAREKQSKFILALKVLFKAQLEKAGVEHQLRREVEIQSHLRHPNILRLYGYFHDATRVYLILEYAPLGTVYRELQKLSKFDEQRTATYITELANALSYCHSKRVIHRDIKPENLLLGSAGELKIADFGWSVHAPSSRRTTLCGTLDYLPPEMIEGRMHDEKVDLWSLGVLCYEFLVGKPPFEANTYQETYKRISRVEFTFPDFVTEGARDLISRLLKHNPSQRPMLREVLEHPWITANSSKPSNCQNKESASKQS
Procedure: as §1, §2, §3, §4

[4] = tested on: AurB or AurC; test: Probe-based (AX9989) kinase profiling in Jurkat lysate: AurB or AurC; assay type: binding; details: screening concentration 1.0 μM
Procedure: as §1, §2, §3, §4

[5] = target: T3, JAK1 (Homo sapiens, UniProt P23458); test: Probe-based (AX9989) kinase profiling in Jurkat lysate: JAK1; assay type: binding; details: screening concentration 1.0 μM; read-out: Kinase inhibition % at indicated screening concentration: JAK1
T3 construct: screened for activity against several kinases in Jurkat cells; endogenous in cells; host or cells: Jurkat cell lysate
Procedure: as §1, §2, §3, §4

[6] = tested on: AMPKa1 or AMPKa2; test: Probe-based (AX9989) kinase profiling in Jurkat lysate: AMPKa1 or AMPKa2; assay type: binding; details: screening concentration 1.0 μM
Procedure: as §1, §2, §3, §4

[7] = target: T4, TAO2 (Homo sapiens, UniProt Q9UL54); test: Probe-based (AX9989) kinase profiling in Jurkat lysate: TAO2; assay type: binding; details: screening concentration 1.0 μM; read-out: Kinase inhibition % at indicated screening concentration: TAO2
T4 construct: screened for activity against several kinases in Jurkat cells; endogenous in cells; host or cells: Jurkat cell lysate
T4 sequence (Q9UL54 1-1235): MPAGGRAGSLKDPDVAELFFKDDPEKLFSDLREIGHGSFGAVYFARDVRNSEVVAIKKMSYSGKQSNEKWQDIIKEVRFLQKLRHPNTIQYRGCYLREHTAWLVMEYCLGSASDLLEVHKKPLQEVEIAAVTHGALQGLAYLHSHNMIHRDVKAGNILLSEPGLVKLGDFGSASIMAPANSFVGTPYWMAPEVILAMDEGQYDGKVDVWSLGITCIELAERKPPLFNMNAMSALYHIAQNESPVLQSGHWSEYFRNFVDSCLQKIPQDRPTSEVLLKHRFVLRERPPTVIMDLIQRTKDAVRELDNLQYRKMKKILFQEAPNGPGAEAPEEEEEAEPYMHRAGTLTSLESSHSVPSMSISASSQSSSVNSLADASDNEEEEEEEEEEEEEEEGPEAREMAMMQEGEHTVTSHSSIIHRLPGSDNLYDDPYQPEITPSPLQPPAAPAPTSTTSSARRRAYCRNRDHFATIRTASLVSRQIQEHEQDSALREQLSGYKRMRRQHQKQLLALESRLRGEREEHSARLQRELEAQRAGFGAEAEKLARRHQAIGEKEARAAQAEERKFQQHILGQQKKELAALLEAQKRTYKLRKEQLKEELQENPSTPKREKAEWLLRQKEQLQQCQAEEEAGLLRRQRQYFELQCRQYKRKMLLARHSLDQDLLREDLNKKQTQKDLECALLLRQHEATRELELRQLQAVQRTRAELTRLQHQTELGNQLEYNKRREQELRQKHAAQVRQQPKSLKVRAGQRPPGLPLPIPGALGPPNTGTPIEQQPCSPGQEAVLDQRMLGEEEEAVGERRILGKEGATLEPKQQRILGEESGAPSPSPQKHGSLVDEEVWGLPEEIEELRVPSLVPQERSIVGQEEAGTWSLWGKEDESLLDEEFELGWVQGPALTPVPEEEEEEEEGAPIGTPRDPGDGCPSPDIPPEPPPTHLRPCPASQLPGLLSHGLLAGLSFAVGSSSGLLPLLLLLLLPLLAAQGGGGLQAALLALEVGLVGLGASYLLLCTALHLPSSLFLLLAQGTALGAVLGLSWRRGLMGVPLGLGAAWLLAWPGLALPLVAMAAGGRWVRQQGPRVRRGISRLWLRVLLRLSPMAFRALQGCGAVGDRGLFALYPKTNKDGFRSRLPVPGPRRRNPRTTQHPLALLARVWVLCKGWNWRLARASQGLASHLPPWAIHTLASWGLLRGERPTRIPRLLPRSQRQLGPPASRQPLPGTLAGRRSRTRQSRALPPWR
Procedure: as §1, §2, §3, §4

[8] = target: T5, ACK (Homo sapiens, UniProt Q07912); test: Probe-based (AX9989) kinase profiling in Jurkat lysate: ACK; assay type: binding; details: screening concentration 1.0 μM; read-out: Kinase inhibition % at indicated screening concentration: ACK
T5 construct: screened for activity against several kinases in Jurkat cells; endogenous in cells; host or cells: Jurkat cell lysate
Procedure: as §1, §2, §3, §4

[9] = tested on: ABL or ARG; test: Probe-based (AX9989) kinase profiling in Jurkat lysate: ABL or ARG; assay type: binding; details: screening concentration 1.0 μM
Procedure: as §1, §2, §3, §4

T1 sequence (Q13164 whole entry): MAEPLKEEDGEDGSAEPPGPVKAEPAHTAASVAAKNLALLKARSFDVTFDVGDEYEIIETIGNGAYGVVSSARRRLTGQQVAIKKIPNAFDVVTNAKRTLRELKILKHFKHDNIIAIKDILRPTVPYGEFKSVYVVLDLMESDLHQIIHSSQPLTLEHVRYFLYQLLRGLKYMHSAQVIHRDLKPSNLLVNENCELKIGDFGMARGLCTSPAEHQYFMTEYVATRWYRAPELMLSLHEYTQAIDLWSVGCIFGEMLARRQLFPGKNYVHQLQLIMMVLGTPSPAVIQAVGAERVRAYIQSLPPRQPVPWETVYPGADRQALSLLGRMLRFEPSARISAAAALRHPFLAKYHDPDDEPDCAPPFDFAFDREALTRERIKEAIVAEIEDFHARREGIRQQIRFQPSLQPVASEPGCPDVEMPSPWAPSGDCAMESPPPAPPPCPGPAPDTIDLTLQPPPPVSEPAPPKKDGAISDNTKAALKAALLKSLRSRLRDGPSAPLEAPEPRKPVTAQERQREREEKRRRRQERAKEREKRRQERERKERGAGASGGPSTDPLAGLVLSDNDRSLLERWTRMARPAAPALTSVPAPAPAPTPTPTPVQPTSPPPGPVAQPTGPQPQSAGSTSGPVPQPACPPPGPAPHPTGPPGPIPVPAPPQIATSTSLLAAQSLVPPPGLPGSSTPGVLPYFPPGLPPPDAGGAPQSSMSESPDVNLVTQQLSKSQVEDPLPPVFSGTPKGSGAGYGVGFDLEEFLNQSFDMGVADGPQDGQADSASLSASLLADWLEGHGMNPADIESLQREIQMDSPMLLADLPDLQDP
T3 sequence (P23458 whole entry): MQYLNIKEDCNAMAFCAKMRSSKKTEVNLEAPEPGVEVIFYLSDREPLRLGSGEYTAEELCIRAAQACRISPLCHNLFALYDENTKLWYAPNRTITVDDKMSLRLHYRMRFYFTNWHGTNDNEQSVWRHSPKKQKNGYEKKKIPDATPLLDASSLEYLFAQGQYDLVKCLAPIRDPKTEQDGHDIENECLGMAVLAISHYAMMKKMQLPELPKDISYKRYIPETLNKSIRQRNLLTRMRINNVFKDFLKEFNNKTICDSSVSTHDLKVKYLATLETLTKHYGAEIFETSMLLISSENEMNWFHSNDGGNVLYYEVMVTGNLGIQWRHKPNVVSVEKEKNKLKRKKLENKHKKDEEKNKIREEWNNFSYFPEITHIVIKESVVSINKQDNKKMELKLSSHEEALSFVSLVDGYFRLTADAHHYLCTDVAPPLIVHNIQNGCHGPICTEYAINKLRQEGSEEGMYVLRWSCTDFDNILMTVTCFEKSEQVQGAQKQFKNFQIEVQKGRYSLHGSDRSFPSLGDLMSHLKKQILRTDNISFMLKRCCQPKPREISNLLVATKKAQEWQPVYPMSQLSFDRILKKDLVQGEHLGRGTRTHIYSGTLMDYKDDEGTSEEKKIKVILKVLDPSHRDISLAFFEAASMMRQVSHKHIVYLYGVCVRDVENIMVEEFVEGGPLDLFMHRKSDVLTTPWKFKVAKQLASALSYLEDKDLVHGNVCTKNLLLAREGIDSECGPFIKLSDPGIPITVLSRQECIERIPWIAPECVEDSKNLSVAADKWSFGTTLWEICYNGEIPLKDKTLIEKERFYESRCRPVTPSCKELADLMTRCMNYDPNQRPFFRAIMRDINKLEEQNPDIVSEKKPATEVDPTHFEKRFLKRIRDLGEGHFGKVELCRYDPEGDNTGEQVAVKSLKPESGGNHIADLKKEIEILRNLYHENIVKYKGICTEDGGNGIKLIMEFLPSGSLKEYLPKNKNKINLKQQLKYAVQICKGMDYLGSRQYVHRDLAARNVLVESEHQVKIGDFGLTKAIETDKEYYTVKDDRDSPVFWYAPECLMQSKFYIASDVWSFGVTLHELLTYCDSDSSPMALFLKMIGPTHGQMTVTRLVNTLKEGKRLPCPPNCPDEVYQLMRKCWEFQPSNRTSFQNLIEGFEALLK
T5 sequence (Q07912 whole entry): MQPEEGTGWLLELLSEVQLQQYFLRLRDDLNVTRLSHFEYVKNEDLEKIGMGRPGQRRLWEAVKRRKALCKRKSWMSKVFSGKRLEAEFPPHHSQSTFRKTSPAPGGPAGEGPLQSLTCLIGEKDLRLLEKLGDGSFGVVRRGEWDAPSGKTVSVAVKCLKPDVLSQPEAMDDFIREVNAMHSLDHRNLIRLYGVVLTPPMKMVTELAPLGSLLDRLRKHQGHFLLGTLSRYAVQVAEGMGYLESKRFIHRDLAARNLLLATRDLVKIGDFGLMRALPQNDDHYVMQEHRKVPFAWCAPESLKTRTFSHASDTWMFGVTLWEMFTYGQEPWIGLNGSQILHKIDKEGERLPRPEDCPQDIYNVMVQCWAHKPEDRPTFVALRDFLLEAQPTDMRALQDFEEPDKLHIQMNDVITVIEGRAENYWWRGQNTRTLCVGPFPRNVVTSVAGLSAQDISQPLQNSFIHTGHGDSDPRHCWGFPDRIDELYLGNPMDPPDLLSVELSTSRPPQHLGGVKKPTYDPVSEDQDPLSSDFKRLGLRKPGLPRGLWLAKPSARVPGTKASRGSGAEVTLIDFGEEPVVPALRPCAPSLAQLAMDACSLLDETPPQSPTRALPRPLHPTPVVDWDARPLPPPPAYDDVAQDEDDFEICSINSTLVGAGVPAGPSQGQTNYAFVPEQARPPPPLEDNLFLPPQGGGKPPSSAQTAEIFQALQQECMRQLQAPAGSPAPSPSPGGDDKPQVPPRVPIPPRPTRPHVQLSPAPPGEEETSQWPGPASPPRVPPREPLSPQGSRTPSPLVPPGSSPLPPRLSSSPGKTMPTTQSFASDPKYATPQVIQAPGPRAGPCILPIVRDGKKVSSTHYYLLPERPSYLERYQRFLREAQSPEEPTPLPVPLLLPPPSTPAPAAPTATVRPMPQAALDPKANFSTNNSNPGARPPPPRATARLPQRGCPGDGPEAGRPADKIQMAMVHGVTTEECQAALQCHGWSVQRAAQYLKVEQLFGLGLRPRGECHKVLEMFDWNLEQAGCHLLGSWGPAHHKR

| SMILES | EC50 [2] [µM] | also measured |
| --- | --- | --- |
| Cc1ccc(Nc2cc3c(cn2)N(C)C(=O)c2ccccc2N3C)c(C)c1 [Compound 3] | 4.23 | IC50 [1]: > 0.5 µM; inhibition at 1 µM [1]: 35 to 50% |
| CCOc1ccccc1Nc1cc2c(cn1)N(C)C(=O)c1ccccc1N2C [Compound 13] | – | IC50 [1]: > 0.5 µM; inhibition at 1 µM [1]: 50 to 75%; inhibition at 1 µM [3]: ≤ 35%; Kinase inhibition % at indicated screening concentration: AurB or AurC [4]: E (E is ≦35%); inhibition at 1 µM [5]: ≤ 35%; Kinase inhibition % at indicated screening concentration: AMPKa1 or AMPKa2 [6]: E (E is ≦35%); inhibition at 1 µM [7]: ≤ 35%; inhibition at 1 µM [8]: ≤ 35%; Kinase inhibition % at indicated screening concentration: ABL or ARG [9]: E (E is ≦35%) |
| CCOc1cc(C(=O)O)ccc1Nc1cc2c(cn1)N(C)C(=O)c1ccccc1N2C [Compound 18, 4-(5,11-Dimethyl-10-oxo-10,11-dihydro-5H-benzo[e]pyrido[3,4-b][1,4]diazepin-3-ylamino)-3-ethoxybenzoic acid] | – | IC50 [1]: > 0.5 µM; inhibition at 1 µM [1]: 50 to 75%; inhibition at 1 µM [3]: ≤ 35%; Kinase inhibition % at indicated screening concentration: AurB or AurC [4]: E (E is ≦35%); inhibition at 1 µM [5]: ≤ 35%; Kinase inhibition % at indicated screening concentration: AMPKa1 or AMPKa2 [6]: E (E is ≦35%); inhibition at 1 µM [7]: ≤ 35%; inhibition at 1 µM [8]: ≤ 35%; Kinase inhibition % at indicated screening concentration: ABL or ARG [9]: E (E is ≦35%) |
| CCOc1cc(C(=O)N(C)C)ccc1Nc1cc2c(cn1)N(C)C(=O)c1ccccc1N2C [Compound 117] | 1.49 | – |
| CCN(CC)CCN(C)C(=O)c1ccc(OC)c(Nc2cc3c(cn2)N(C)C(=O)c2ccccc2N3C)c1 [Compound 118] | 3.32 | – |
| CCN(CC)CCN(C)C(=O)c1cccc(Nc2cc3c(cn2)N(C)C(=O)c2ccccc2N3C)c1OC [Compound 119] | 3.96 | – |
| CCOc1cc(C(=O)N(CCO)CCO)ccc1Nc1cc2c(cn1)N(C)C(=O)c1ccccc1N2C [Compound 121] | 0.95 | – |
| CCOc1cc(C(=O)N2CC[C@@H](NC3CCN(C)CC3)C2)ccc1Nc1cc2c(cn1)N(C)C(=O)c1ccccc1N2C [Compound T60] | 0.95 | – |
| CCOc1cc(C(=O)N[C@H]2CC[C@H](O)CC2)ccc1Nc1cc2c(cn1)N(C)C(=O)c1ccccc1S2 [Compound T90] | > 15 | – |
| CCOc1cc(C(=O)N[C@H]2CC[C@H](O)CC2)ccc1Nc1cc2c(cn1)N(C)C(=O)c1ccccc1S2(=O)=O [Compound T91] | > 15 | – |
| CCOc1cc(C(=O)N2CCN(C3CCN(C)CC3)CC2)ccc1Nc1cc2c(cn1)N(C)C(=O)c1ccccc1S2(=O)=O [Compound T101] | > 15 | – |
| CN1C(=O)c2ccccc2N(C)c2cc(NC3CCCCC3O)ncc21 (centres unmarked) [Compound T108] | 3.01 | – |
| CN1C(=O)c2ccccc2N(C)c2cc(N[C@@H]3CCCCC3O)ncc21 (some centres unmarked) [Compound T109] | 2.16 | – |
| CN1C(=O)c2ccccc2N(C)c2cc(N[C@@H]3CCC[C@H](O)C3)ncc21 [Compound T111] | 1.92 | – |
| CCO[C@@H]1CCCC[C@H]1Nc1cc2c(cn1)N(C)C(=O)c1ccccc1N2C [Compound T112] | 2.36 | – |
| Cc1cccc2c1N(C)c1cc(N[C@H]3CC[C@H](O)CC3)ncc1N(C)C2=O [Compound T121] | 2.99 | – |
| CN1C(=O)c2ccccc2N(C)c2cc(N[C@H]3CC[C@@](C)(O)CC3)ncc21 [Compound T123] | 2.1 | – |
| CN1C(=O)c2ccccc2N(C)c2cc(NC3CCN(S(=O)(=O)CCN4CCCC4)CC3)ncc21 [Compound T130] | 2.46 | – |
| CN1C(=O)c2ccccc2N(C)c2cc(N[C@H]3C[C@@H](O)C3)ncc21 [Compound T131] | 6.06 | – |
| CN1C(=O)c2ccccc2N(C)c2cc(N[C@@H]3CC[C@@H](O)C3)ncc21 [Compound T132] | 3.28 | – |
| CN1C(=O)c2ccccc2N(C)c2cc(N[C@H]3CC[C@H](N)C3)ncc21 [Compound T133] | 9.84 | – |
| CN1C(=O)c2ccccc2N(C)c2cc(N[C@H]3CC[C@@H](O)C3)ncc21 [Compound T134] | 3.68 | – |
| CN1C(=O)c2ccccc2N(C)c2cc(N[C@H]3C[C@H](N)C3)ncc21 [Compound T135] | 9.2 | – |
